From patent US7199113B2, “Pharmaceutically active compounds and methods of use thereof” (priority 1998, dated 2007)

Columns and labels:
[1] = target: T1, TF (243 form lipidated or 219 form unlipidated) (Homo sapiens, UniProt P13726); test: Isothermal calorimetry analysis of binding to TF
T1 construct: made in house; host or cells: E. coli (stated for the 243-aa form)

[2] = target: T2, human recombinant TF/VIIa complex (lipidated) (Homo sapiens, UniProt P13726); test: TF/VIIa-dependent FX activation assay; type: biochemical; conditions: statement on FIG. 3
T2 construct: Truncated recombinant human tissue factor (e.g. composed of 243 amino acids) is expressed in E. coli; host or cells: E. coli (TF)
T2 sequence (P13726 33-275 limits assumed): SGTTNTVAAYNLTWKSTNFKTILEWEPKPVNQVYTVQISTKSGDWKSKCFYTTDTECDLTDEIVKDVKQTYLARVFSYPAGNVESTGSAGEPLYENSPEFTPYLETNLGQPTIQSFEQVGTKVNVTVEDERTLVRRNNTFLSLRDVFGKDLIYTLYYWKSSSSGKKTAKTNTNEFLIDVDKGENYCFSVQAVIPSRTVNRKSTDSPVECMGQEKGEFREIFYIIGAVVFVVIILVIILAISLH
T2 sequence (P08709 61-212 partner limits assumed): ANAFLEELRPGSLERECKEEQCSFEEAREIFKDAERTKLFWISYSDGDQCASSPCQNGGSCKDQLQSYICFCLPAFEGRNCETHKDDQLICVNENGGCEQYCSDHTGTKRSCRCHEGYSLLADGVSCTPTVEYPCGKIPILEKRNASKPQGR
T2 sequence (P08709 213-466 partner limits assumed): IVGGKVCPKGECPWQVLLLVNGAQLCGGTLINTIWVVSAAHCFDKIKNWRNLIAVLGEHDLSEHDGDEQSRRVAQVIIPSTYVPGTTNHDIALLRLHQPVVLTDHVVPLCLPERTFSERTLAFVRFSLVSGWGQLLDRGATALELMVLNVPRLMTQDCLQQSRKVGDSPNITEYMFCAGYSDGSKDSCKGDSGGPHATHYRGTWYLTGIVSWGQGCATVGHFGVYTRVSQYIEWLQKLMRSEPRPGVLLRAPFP
Protocol: A more particular example of the primary screening assay discussed previously is as follows. The assay is standard for measuring TF/VIIa-dependent factor X activation. […] In a more preferred embodiment, the primary screening preferably includes the following steps. • 1) admixing in a suitable assay solution about 0.1 nM of human recombinant TF/VIIa complex (lipidated), about 180 nM human FX, and between from about 0.5 μl to about 10 μl of at least one compound to be tested (optionally dissolved in an appropriate vehicle such as water or dimethylsulfoxide (DMSO)) and incubating the reaction at 37° C. for a few minutes up to about an hour or more, • 2) contacting the solution with a suitable chelating agent such as ethylenediaminietetra acetic acid (EDTA) to reduce or stop factor X activation, • 3) contacting the solution with a detectable amount of a chromogenic substrate specific for FXa (e.g., Spectrozyme FXa or S-2765) and incubating same at 37° C.; and • 4) detecting chromophore produced in the solution as being indicative of the factor X activation.
The primary screening for compounds that inhibit tissue factor/factor VIIa (TF/VIIa) is based on TF/VIIa-dependent FX activation assay (See flow chart in FIG. 1 of the drawings). In this assay, the ability of TF/VIIa complex to activate FX is determined in two discontinuous stages. […] In the second stage (FXa activity assay), EDTA is added at indicated times to the FX activation mixture to chelate calcium, thus leading to the termination of FX→FXa conversion. Calcium is required for TF/VIIa activity. The activity of FXa is then measured by FXa-specific chromogenic substrates such as S-2222, S-2765, or Spectrozyme FXa. In the primary screening, compounds from a previously prepared chemical library are first tested at relatively high concentrations (˜0.833 mM) in TF/VIIa-dependent FX activation assay to identify hits of potential TF pathway antagonists (see FIG. 1). However, it is evident that the inhibition of TF/VIIa-dependent FX activation by a compound in this enzyme-coupled assay can be attributed to effects of the compound on TF/VIIa and/or FXa activities. Thus, secondary screening tests are designed to determine how inhibition takes place and the inhibition mechanism. In secondary screening experiments, effects of those compounds identified from primary screening are tested on catalytic activities of factor VIIa (FVIIa), factor IXa (FIXa), factor Xa (FXa), thrombin, Russell's viper venom (RVV), and trypsin.
Primary screening was done in duplicate in 96-well plates using the TF/VIIa-dependent FX activation assay. All compounds to be screened were dissolved in dimethyl sulfoxide (DMSO), other reagents were prepared or diluted in 25 mM HEPES-NaOH, 5 mM CaCl2, 150 mM NaCl, 0.1% BSA, pH 7.5. For assays where TF was used, purified human recombinant TF (100 nM) was first lipidated with phosphatidylcholine (0.07 mg/ml) and phosphatidylserine (0.03 mg/ml) in 50 mM Tris-HCl, pH 7.5, 0.1% bovine serum albumin (BSA) for 30 minutes at 37° C. A stock solution of TF/VIIa complex was then prepared by combining equal volumes of 100 nM lipidated TF and 100 nM FVIIa The complex was incubated at 37° C. for 30 minutes and then was aliquoted and stored at −70° C. for future uses.
For screening assays, 5 μl of each compound (about 10 mM in DMSO) or DMSO were placed in each well of a 96-well plate, followed by adding 45 μl of TF/VIIa complex (0.1 nM). The components in each well were mixed either with pipette tips or by shaking the plate on a Lab-Line titer plate shaker for 30 seconds. After 15 minutes incubation of the plate at a 37° C., 10 μl of human FX (180 nM) was added to each well and mixed as above. The plate was then incubated at 37° C. for 3 to 15 minutes, followed by addition of 10 μl of EDTA (400 mM in 144 mM HEPES, 864 mM NaCl, 0.576% BSA, pH adjusted to 7.5) to each well to terminate FX activation. […]

TF/VIIa complex = target: T3, TF/VIIa complex (Homo sapiens, UniProt P13726); test: TF/VIIa-dependent FIX activation assay; type: biochemical; conditions: statement on FIG. 3
T3 construct: Truncated recombinant human tissue factor (e.g. composed of 243 amino acids) is expressed in E. coli; host or cells: E. coli (TF)
T3 sequence (P13726 33-275 limits assumed): as the sequence (P13726 33-275 limits assumed) above
T3 sequence (P08709 61-212 partner limits assumed): as the sequence (P08709 61-212 partner limits assumed) above
T3 sequence (P08709 213-466 partner limits assumed): as the sequence (P08709 213-466 partner limits assumed) above
Protocol: In a more particular embodiment, the standard assay preferably includes the following steps: • 1) admixing in a suitable assay solution about 0.7 nM TF/VIIa complex with 300 nM factor IX and 1000 nM factor X, and from between about 0.5 μl to about 10 μl of at least one compound to be tested (optionally dissolved in an appropriate vehicle such as water or dimethylsulfoxide (DMSO)) and incubating the solution at 37° C. from between about a few minutes up to about an hour under conditions suitable for forming FIXa and FXa; • 2) contacting the solution with a suitable chelating agent such as EDTA to stop FIX activation; • 3) contacting the solution with a chromogenic substrate specific for the FXa (e.g., Spectrozyme FXa) and incubating same at 37° C.; and • 4) detecting chromophore in the solution as being indicative of the factor IX activation.
TF/VIIa is not only able to activate FX, but is also able to convert FIX to FIXa. To examine whether the two antagonists 1 and 2 were able to block FIX activation catalyzed by TF/VIIa. FIX activation experiment was conducted. To each well of a 96-well plate, 5 μl of diluted DMSO or compound was added, followed by 45 μl of TF/VIIa (0.67 nM). After mixing and incubating for 15 minutes at 37° C., 10 μl of FIX (300 nM) was added and incubated for 10 minutes at 37° C. 10 μl of EDTA ([…] in 144 mM HEPES, […], 0.576% BSA, pH adjusted to 7.5) was added, followed by addition of 10 μl of FX (1000 nM), 10 μl of polylysine, and 10 μl of Spectrozyme FXa (6 mM). After 3 hour incubation at 37° C., absorbance at 405 nm was measured following addition of 20 μl of 50% acetic acid. The percent inhibition of TF/VIIa-dependent FIX activation was calculated from OD405 nm values in the absence and presence of a compound.

T1 sequence (P13726 33-251): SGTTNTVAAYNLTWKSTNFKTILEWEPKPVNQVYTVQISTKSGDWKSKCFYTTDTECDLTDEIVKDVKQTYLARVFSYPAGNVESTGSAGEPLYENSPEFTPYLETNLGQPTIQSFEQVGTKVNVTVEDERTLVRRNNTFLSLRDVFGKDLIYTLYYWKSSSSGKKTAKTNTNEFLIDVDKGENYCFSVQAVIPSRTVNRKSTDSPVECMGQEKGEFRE

binding to TF [1]	blocking activity in standard assay for TF/VIIa-dependent factor X activation [2]	blocking activity in standard assay for TF/VIIa-dependent factor IX activation (TF/VIIa complex)	Compound
directly observed			1-(bisphosponate)-2-amino(3-hydroxyphenyl)ethyl [Compound 1]
	good blocking activity	good blocking activity	Nc1ccc(NCC(P(=O)(O)O)P(=O)(O)O)cc1 [Compound 3]
	good blocking activity	good blocking activity	Cc1ccc(NCC(P(=O)(O)O)P(=O)(O)O)cc1 [Compound 4]
	good blocking activity	good blocking activity	O=P(O)(O)C(COc1ccccc1)P(=O)(O)O [Compound 6]
	good blocking activity	good blocking activity	NCCCC(O)(P(=O)(O)O)P(=O)(O)O [Fosamax, reference compound]
